The conditions of this series: Crystal; for mass density: 298 K, 101.33 kPa, Pycnometric method; for Normal melting temperature: DTA.

SMILES strings stand for the structures. Numbers after ± are expanded uncertainties.

Turning to `Clc1ccnc2ccccc12` [4-chloroquinoline], the mass density was 1251 ± 2 kg/m3 and the Normal melting temperature came to 35 ± 0.5 °C. `Clc1ccc2c(Cl)ccnc2c1` [4,7-dichloroquinoline]: the Normal melting temperature was 92.4 ± 0.5 °C. Consider `Clc1ccc2ccccc2n1` [2-chloroquinoline], for which the mass density was 1246 ± 2 kg/m3 and the Normal melting temperature was 38.4 ± 0.5 °C. As to `Clc1ccc2ncccc2c1` [6-chloroquinoline], the Normal melting temperature came out at 46 ± 0.5 °C.

Source of the values: the NIST ThermoML archive (doi:10.1016/j.jct.2005.03.011).
